Reference: ChEMBL document CHEMBL1759965, “Synthesis and pharmacological evaluation of bivalent antagonists of the nociceptin opioid receptor” (Eur J Med Chem, 2011)
Active and inactive are the calls of the source. No cut-off for these calls is given here.

What was measured:
[1] = species on record: Homo sapiens; test: Selectivity ratio of IC50 for human kappa opioid receptor to IC50 for human NOP receptor
[2] = biological target: Delta-type opioid receptor (Homo sapiens) (UniProt P41143); test: Displacement of [3H]-naltrindole from human delta opioid receptor expressed in human HEK293 cells after 2 hrs by scintillation counting; format: cell-based
Delta-type opioid receptor (Homo sapiens), sequence (P41143 whole entry): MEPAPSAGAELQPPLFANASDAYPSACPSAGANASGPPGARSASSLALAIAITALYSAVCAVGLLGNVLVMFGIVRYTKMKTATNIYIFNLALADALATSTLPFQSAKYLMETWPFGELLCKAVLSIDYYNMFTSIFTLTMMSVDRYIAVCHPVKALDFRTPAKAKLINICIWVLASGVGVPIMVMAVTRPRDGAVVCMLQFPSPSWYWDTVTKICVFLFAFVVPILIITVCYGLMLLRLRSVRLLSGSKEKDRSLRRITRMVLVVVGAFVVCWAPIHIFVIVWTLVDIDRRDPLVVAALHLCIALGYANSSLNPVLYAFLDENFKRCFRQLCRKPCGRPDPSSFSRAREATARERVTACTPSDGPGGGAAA

[3] = biological target: T1, Nociceptin receptor (Homo sapiens, UniProt P41146); test: Displacement of [125I]Tyr14-nociceptin from human NOP receptor expressed in human HEK293 cells after 90 mins by scintillation counting
T1 sequence (P41146 whole entry): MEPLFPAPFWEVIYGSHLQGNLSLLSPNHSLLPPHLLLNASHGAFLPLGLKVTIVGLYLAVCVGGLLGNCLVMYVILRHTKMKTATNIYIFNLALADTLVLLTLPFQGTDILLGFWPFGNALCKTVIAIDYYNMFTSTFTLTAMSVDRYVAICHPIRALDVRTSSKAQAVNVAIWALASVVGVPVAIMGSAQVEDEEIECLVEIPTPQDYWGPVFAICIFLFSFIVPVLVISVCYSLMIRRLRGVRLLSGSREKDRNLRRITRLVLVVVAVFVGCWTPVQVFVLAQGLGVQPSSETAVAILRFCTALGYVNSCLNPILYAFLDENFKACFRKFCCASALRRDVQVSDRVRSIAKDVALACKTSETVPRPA

[4] = biological target: Kappa-type opioid receptor (Homo sapiens, UniProt P41145); test: Displacement of [3H]-diprenorphine from human kappa opioid receptor expressed in human HEK293 cells after 2 hrs by scintillation counting
Kappa-type opioid receptor, sequence (P41145 whole entry): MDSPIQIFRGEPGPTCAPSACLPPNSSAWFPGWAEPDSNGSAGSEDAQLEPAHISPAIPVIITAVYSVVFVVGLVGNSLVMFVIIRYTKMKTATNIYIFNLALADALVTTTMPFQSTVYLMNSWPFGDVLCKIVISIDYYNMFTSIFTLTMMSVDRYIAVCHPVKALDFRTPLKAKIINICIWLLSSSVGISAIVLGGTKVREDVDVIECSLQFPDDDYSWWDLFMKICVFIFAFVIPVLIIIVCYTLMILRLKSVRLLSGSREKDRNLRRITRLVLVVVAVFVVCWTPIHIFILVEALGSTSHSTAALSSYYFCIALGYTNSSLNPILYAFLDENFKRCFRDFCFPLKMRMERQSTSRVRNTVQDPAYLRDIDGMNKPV

[5] = biological target: T1, Nociceptin receptor; test: Antagonist activity at human NOP receptor expressed in human HEK293 cells assessed as inhibition of GTPgammaS binding in presence of 300 nM GDP relative to control; format: functional, cell-based
[6] = species on record: Homo sapiens; test: Selectivity ratio of IC50 for human mu opioid receptor to IC50 for human NOP receptor
[7] = biological target: Mu-type opioid receptor (Homo sapiens, UniProt P35372); test: Displacement of [3H]-naltrindole from human mu opioid receptor expressed in CHO cells after 2 hrs by scintillation counting; format: cell-based
Mu-type opioid receptor, sequence (P35372 whole entry): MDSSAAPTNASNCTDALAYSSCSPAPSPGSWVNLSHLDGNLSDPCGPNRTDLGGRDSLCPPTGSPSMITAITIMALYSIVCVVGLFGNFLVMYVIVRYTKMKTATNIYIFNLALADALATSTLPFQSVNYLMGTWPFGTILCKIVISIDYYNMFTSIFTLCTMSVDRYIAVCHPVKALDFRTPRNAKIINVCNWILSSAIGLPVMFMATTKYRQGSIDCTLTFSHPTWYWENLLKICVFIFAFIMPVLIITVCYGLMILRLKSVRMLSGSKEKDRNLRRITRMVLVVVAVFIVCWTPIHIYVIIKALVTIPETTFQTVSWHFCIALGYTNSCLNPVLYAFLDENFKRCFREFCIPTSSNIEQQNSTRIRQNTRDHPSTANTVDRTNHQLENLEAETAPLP

SMILES | Ratio IC50 [1] | Activity [2] | IC50 [3] [nM] | IC50 [4] [nM] | Activity [5] | Ratio IC50 [6] | IC50 [7] [nM]
Cc1cc(N)c2cc(NC(=O)c3ccccc3COc3ccc(/C=N/CCCCC/N=C/c4ccc(OCc5ccccc5C(=O)Nc5ccc6nc(C)cc(N)c6c5)cc4)cc3)ccc2n1 | – | inactive | 50.9 | – | Active | – | –
Cc1cc(N)c2cc(NC(=O)c3ccccc3COc3ccc(/C=N/CCCCCC/N=C/c4ccc(OCc5ccccc5C(=O)Nc5ccc6nc(C)cc(N)c6c5)cc4)cc3)ccc2n1 | – | inactive | 83.3 | – | Active | – | –
Cc1cc(N)c2cc(NC(=O)c3ccccc3COc3ccc(/C=N/CCCC/N=C/c4ccc(OCc5ccccc5C(=O)Nc5ccc6nc(C)cc(N)c6c5)cc4)cc3)ccc2n1 | – | inactive | 35.6 | – | Active | – | –
CCCCCCCCCC/N=C/c1ccc(OCc2ccccc2C(=O)Nc2ccc3nc(C)cc(N)c3c2)cc1 | – | inactive | 184 | – | Active | – | –
Cc1cc(N)c2cc(NC(=O)c3ccccc3COc3ccc(/C=N/CCCCCCCCC/N=C/c4ccc(OCc5ccccc5C(=O)Nc5ccc6nc(C)cc(N)c6c5)cc4)cc3)ccc2n1 | – | inactive | 82.7 | – | Active | – | –
Cc1cc(N)c2cc(NC(=O)c3ccccc3COc3ccc(CNCCCCCCCCNCc4ccc(OCc5ccccc5C(=O)Nc5ccc6nc(C)cc(N)c6c5)cc4)cc3)ccc2n1 | 37 | inactive | 31.6 | 1270 | Active | 56 | 1900
Cc1cc(N)c2cc(NC(=O)c3ccccc3COc3ccc(/C=N/CCC/N=C/c4ccc(OCc5ccccc5C(=O)Nc5ccc6nc(C)cc(N)c6c5)cc4)cc3)ccc2n1 | – | inactive | 48 | – | Active | – | –
Cc1cc(N)c2cc(NC(=O)c3ccccc3COc3ccc(CNCCCCCCCCCCN)cc3)ccc2n1 | 86 | inactive | 153 | 9100 | Active | 13 | 1400
Cc1cc(N)c2cc(NC(=O)c3ccccc3COc3ccc(CNCCCCCCCCCCNCc4ccc(OCc5ccccc5C(=O)Nc5ccc6nc(C)cc(N)c6c5)cc4)cc3)ccc2n1 | 31 | inactive | 32.7 | 900 | Active | 45 | 1320
Cc1cc(N)c2cc(NC(=O)c3ccccc3COc3ccc(CNCCCCNCc4ccc(OCc5ccccc5C(=O)Nc5ccc6nc(C)cc(N)c6c5)cc4)cc3)ccc2n1 | 27 | inactive | 56.6 | 1090 | Active | 39 | 1590
CCCCCCCCC/N=C/c1ccc(OCc2ccccc2C(=O)Nc2ccc3nc(C)cc(N)c3c2)cc1 | – | inactive | 154 | – | Active | – | –
Cc1cc(N)c2cc(NC(=O)c3ccccc3COc3ccc(CNCCCCCNCc4ccc(OCc5ccccc5C(=O)Nc5ccc6nc(C)cc(N)c6c5)cc4)cc3)ccc2n1 | 28 | inactive | 76.2 | 1500 | Active | 46 | 2510
Cc1cc(N)c2cc(NC(=O)c3ccccc3COc3ccc(CNCCCCCCCNCc4ccc(OCc5ccccc5C(=O)Nc5ccc6nc(C)cc(N)c6c5)cc4)cc3)ccc2n1 | 33 | inactive | 30.1 | 1020 | Active | 34 | 1040
Cc1cc(N)c2cc(NC(=O)c3ccccc3COc3ccc(CNCCCNCc4ccc(OCc5ccccc5C(=O)Nc5ccc6nc(C)cc(N)c6c5)cc4)cc3)ccc2n1 | 177 | inactive | 76.5 | 5480 | Active | 15 | 468
Cc1cc(N)c2cc(NC(=O)c3ccccc3COc3ccc(/C=N/CCCCCCC/N=C/c4ccc(OCc5ccccc5C(=O)Nc5ccc6nc(C)cc(N)c6c5)cc4)cc3)ccc2n1 | – | inactive | 63.1 | – | Active | – | –
Cc1cc(N)c2cc(NC(=O)c3ccccc3COc3ccc(CNCCCCCCCCN)cc3)ccc2n1 | 8.6 | inactive | 144 | 872 | Active | 3.2 | 325
Cc1cc(N)c2cc(NC(=O)c3ccccc3COc3ccc(/C=N/CCCCCCCCCC/N=C/c4ccc(OCc5ccccc5C(=O)Nc5ccc6nc(C)cc(N)c6c5)cc4)cc3)ccc2n1 | – | inactive | 82.1 | – | Active | – | –
CCCCCCCC/N=C/c1ccc(OCc2ccccc2C(=O)Nc2ccc3nc(C)cc(N)c3c2)cc1 | – | inactive | 147 | – | Active | – | –
Cc1cc(N)c2cc(NC(=O)c3ccccc3COc3ccc(/C=N/CCCCCCCC/N=C/c4ccc(OCc5ccccc5C(=O)Nc5ccc6nc(C)cc(N)c6c5)cc4)cc3)ccc2n1 | – | inactive | 114 | – | Active | – | –

Further lines, results first:

Ratio IC50 [1] | Activity [2] | IC50 [3] [nM] | IC50 [4] [nM] | Activity [5] | Ratio IC50 [6] | IC50 [7] [nM] | SMILES
1.2 | inactive | 1220 | 1160 | Active | 2.6 | 2590 | CCCCCCNCc1ccc(OCc2ccccc2C(=O)Nc2ccc3nc(C)cc(N)c3c2)cc1
13 | inactive | 732 | 3670 | Active | 16 | 4450 | CCCCCNCc1ccc(OCc2ccccc2C(=O)Nc2ccc3nc(C)cc(N)c3c2)cc1
10 | inactive | 1120 | 5920 | Active | 8.6 | 5110 | CCCCNCc1ccc(OCc2ccccc2C(=O)Nc2ccc3nc(C)cc(N)c3c2)cc1
– | inactive | 116 | – | Active | – | – | Cc1cc(N)c2cc(NC(=O)c3ccccc3COc3ccc(CN)cc3)ccc2n1
– | inactive | 309 | – | Active | – | – | CCCC/N=C/c1ccc(OCc2ccccc2C(=O)Nc2ccc3nc(C)cc(N)c3c2)cc1
18 | inactive | 207 | 2150 | Active | 41 | 4880 | Cc1cc(N)c2cc(NC(=O)c3ccccc3COc3ccc(CNCCCCCN)cc3)ccc2n1
6.2 | inactive | 668 | 1850 | Active | 6.6 | 1980 | CCCCCCCNCc1ccc(OCc2ccccc2C(=O)Nc2ccc3nc(C)cc(N)c3c2)cc1
– | inactive | 186 | – | Active | – | – | CCCCC/N=C/c1ccc(OCc2ccccc2C(=O)Nc2ccc3nc(C)cc(N)c3c2)cc1
15 | inactive | 405 | 4350 | Active | 9.6 | 2750 | CCCCCCCCCCNCc1ccc(OCc2ccccc2C(=O)Nc2ccc3nc(C)cc(N)c3c2)cc1
– | inactive | 98.9 | – | Active | – | – | CCC/N=C/c1ccc(OCc2ccccc2C(=O)Nc2ccc3nc(C)cc(N)c3c2)cc1
250 | inactive | 30 | 7510 | Active | 50 | 1510 | CCc1ccc(OCc2ccccc2C(=O)Nc2ccc3nc(C)cc(N)c3c2)cc1
– | inactive | 142 | – | Active | – | – | CCCCCCC/N=C/c1ccc(OCc2ccccc2C(=O)Nc2ccc3nc(C)cc(N)c3c2)cc1
1.5 | inactive | 1110 | 1220 | Active | 7.4 | 6000 | Cc1cc(N)c2cc(NC(=O)c3ccccc3COc3ccc(CNCCCCCCN)cc3)ccc2n1
13 | inactive | 305 | 2560 | Active | 11 | 2170 | CCCCCCCCCNCc1ccc(OCc2ccccc2C(=O)Nc2ccc3nc(C)cc(N)c3c2)cc1
15 | inactive | 483 | 4950 | Active | 13 | 4340 | CCCCCCCCNCc1ccc(OCc2ccccc2C(=O)Nc2ccc3nc(C)cc(N)c3c2)cc1
45 | inactive | 83 | 3080 | Active | 49 | 3350 | CCCNCc1ccc(OCc2ccccc2C(=O)Nc2ccc3nc(C)cc(N)c3c2)cc1
– | inactive | 207 | – | Active | – | – | Cc1cc(N)c2cc(NC(=O)c3ccccc3COc3ccc(C=O)cc3)ccc2n1
– | inactive | 209 | – | Active | – | – | CCCCCC/N=C/c1ccc(OCc2ccccc2C(=O)Nc2ccc3nc(C)cc(N)c3c2)cc1
